{
  "source": "patent US12109304B1",
  "about": "“Oral patch for treating mouth ulcers” (Xiamen LP Pharmaceutical Co., Ltd., priority 2023, dated 2024)",
  "origin": "cited, not measured here",
  "data": [
    {"smiles": "CCCCNc1ccc(C(=O)OCCN(C)C)cc1.Cl", "note": "[Tetracaine hydrochloride]", "values": [
      {"measurement": "Solubility in ethanol / alcohol", "setting": "ethanol (alcohol)", "value": "soluble"},
      {"measurement": "Solubility in water", "setting": "water", "value": "soluble"}
    ]}
  ]
}
